Data set [1] has as its system Acinetobacter baumanaii NCTC 19606. The data set can be described thus: multi-point inoculation onto Columbia agar plates. The class given is cell-based. Conditions: substrate 300 mg/L, FAC 500 mg/L, 18 h at 37° C. in air. Here is the method: (§1) The specificity of action of both DHN-β-D-glucuronide (2) and of catechol-β-D-glucuronide (1), as well as their 6′-methyl esters (4 and 6), was first established using multi-point inoculation of 20 different microbial strains onto Columbia agar plates. The strains chosen represented species commonly encountered in diagnostic microbiology. The substrates were incorporated into the agar at a concentration of 300 mg/L with an iron salt, ferric ammonium citrate, (hereinafter known as FAC) at 500 mg/L. The plates were incubated for 18 h at 37° C. in air.

Data set [2] concerns Bacillus subtilis NCTC 9372. The data set can be described thus: multi-point inoculation onto Columbia agar plates. The data set is classed as cell-based. Conditions: substrate 300 mg/L, FAC 500 mg/L, 18 h at 37° C. in air. How it is done: as §1
The test system of data set [3] is Burkholderia cepacia NCTC 10931. In words: multi-point inoculation onto Columbia agar plates. The class given is cell-based. To be noted: substrate 300 mg/L, FAC 500 mg/L, 18 h at 37° C. in air. How it is done: as §1
Data set [4] has as its system Candida albicans ATCC 90028. In words: multi-point inoculation onto Columbia agar plates. The class given is cell-based. To be noted: substrate 300 mg/L, FAC 500 mg/L, 18 h at 37° C. in air. How it is done: as §1
Data set [5] relates to Candida glabrata NCPF 3943. The data set can be described thus: multi-point inoculation onto Columbia agar plates. The class given is cell-based. To be noted: substrate 300 mg/L, FAC 500 mg/L, 18 h at 37° C. in air. Here is the method: as §1
Data set [6] has as its system Enterobacter cloacae NCTC 11936. In words: multi-point inoculation onto Columbia agar plates. The data set is classed as cell-based. To be noted: substrate 300 mg/L, FAC 500 mg/L, 18 h at 37° C. in air. Here is the method: as §1
Data set [7] has as its system Enterococcus faecalis NCTC 775. The data set can be described thus: multi-point inoculation onto Columbia agar plates. The class given is cell-based. To be noted: substrate 300 mg/L, FAC 500 mg/L, 18 h at 37° C. in air. How it is done: as §1
Data set [8] deals with Enterococcus faecium NCTC 7171. In words: multi-point inoculation onto Columbia agar plates. The data set is classed as cell-based. To be noted: substrate 300 mg/L, FAC 500 mg/L, 18 h at 37° C. in air. How it is done: as §1
Data set [9] deals with Escherichia coli NCTC 10418. The data set can be described thus: multi-point inoculation onto Columbia agar plates. The data set is classed as cell-based. Conditions: for intensity of the colour / performance compared with the other substrates: comparison in words, Columbia agar with FAC; for colour: substrate 300 mg/L, FAC 500 mg/L, 18 h at 37° C. in air. Here is the method:
as §1

In data set [10] the test system is Klebsiella pneumoniae NCTC 9528. In words: multi-point inoculation onto Columbia agar plates. To be noted: substrate 300 mg/L, FAC 500 mg/L, 18 h at 37° C. in air. The class given is cell-based. How it is done:
as §1

The subject of data set [11] is Listeria monocytogenes NCTC 11994. The data set can be described thus: multi-point inoculation onto Columbia agar plates. The data set is classed as cell-based. Conditions: substrate 300 mg/L, FAC 500 mg/L, 18 h at 37° C. in air. How it is done: as §1
The test system of data set [12] is Providencia rettgeri NCTC 7475. In words: multi-point inoculation onto Columbia agar plates. The data set is classed as cell-based. Conditions: substrate 300 mg/L, FAC 500 mg/L, 18 h at 37° C. in air. Here is the method: as §1
Data set [13] has as its system Pseudomonas aeruginosa NCTC 10662. The data set can be described thus: multi-point inoculation onto Columbia agar plates. The data set is classed as cell-based. Conditions: substrate 300 mg/L, FAC 500 mg/L, 18 h at 37° C. in air. How it is done: as §1
Data set [14] concerns Salmonella typhimurium NCTC 74. In words: multi-point inoculation onto Columbia agar plates. The class given is cell-based. Conditions: substrate 300 mg/L, FAC 500 mg/L, 18 h at 37° C. in air. How it is done:
as §1

Data set [15] concerns Serratia marcescens NCTC 10211. The data set can be described thus: multi-point inoculation onto Columbia agar plates. The data set is classed as cell-based. Conditions: substrate 300 mg/L, FAC 500 mg/L, 18 h at 37° C. in air. Here is the method:
as §1

The subject of data set [16] is Staphylococcus aureus (MRSA) NCTC 11939. In words: multi-point inoculation onto Columbia agar plates. To be noted: substrate 300 mg/L, FAC 500 mg/L, 18 h at 37° C. in air. The class given is cell-based. Here is the method:
as §1

Data set [17] concerns Staphylococcus aureus NCTC 6571. In words: multi-point inoculation onto Columbia agar plates. The data set is classed as cell-based. To be noted: substrate 300 mg/L, FAC 500 mg/L, 18 h at 37° C. in air. How it is done: as §1
Data set [18] concerns Staphylococcus epidermidis NCTC 11047. The data set can be described thus: multi-point inoculation onto Columbia agar plates. The data set is classed as cell-based. To be noted: substrate 300 mg/L, FAC 500 mg/L, 18 h at 37° C. in air. How it is done:
as §1

For data set [19], the system named is Streptococcus pyogenes NCTC 8306. In words: multi-point inoculation onto Columbia agar plates. The data set is classed as cell-based. To be noted: substrate 300 mg/L, FAC 500 mg/L, 18 h at 37° C. in air. Here is the method: as §1
Data set [20] relates to Yersinia enterocolitica NCTC 11176. In words: multi-point inoculation onto Columbia agar plates. The data set is classed as cell-based. To be noted: substrate 300 mg/L, FAC 500 mg/L, 18 h at 37° C. in air. Here is the method:
as §1

For data set [21], the system named is 20 different microbial strains. The data set can be described thus: specificity of action on 20 different microbial strains, Columbia agar. The data set is classed as cell-based. To be noted: 19 organisms other than E. coli NCTC 10418, FAC. How it is done: as §1
Of the 20 strains, only the β-D-glucuronidase-positive strain of E. coli, (E. coli NCTC 10418) was able to hydrolyse the substrates. This organism generated diffuse, purple-brown colonies with the catechol substrates and diffuse, maroon colonies with the DHN substrates. Essentially identical results were obtained if other iron salts (e.g. iron(II) gluconate, iron(II) acetate, iron(II) citrate, iron(II) acetylacetonate and iron(III) acetylacetonate) were substituted in place of FAC. The iron compound can be either iron(II) (i.e. ferrous) or iron(III) (i.e. ferric). Both types of compound work equally, and the coloured chelates were still formed when the plates were incubated under anaerobic conditions, which is another useful feature of the present invention. The substrates may also be autoclaved at 116° C. for 20 minutes with no decrease in sensitivity. It will be appreciated that the media and the reagents will all contain at least traces of iron compounds. […] In contrast, supplementing the growth media with compounds of other metals gave either no coloured endpoint or an extremely poor one to visualise. […] Therefore the latter substrates were preferred for more extensive evaluation. […] For convenience, further evaluation of catechol-β-D-glucuronide and DHN-β-D-glucuronide was conducted with the CHA salt forms only (1 and 2b). In the present invention the counter ion of the glucuronide is not considered to be of special significance. For acidic enzyme substrates (including glucuronides), a variety of different counter ions, both inorganic and organic, are well known in the prior art.

Where a name gives a salt, the structure may show the parent alone.

As a reminder, the melting point is the temperature of the solid-liquid transition. Compound `O=C(O)C1OC(Oc2ccccc2O)C(O)C(O)C1O` (as salt: salt) [Compound 1, Catechol β-D-Glucuronide CHA Salt] had a melting point of 208 to 210 °C.

On to `O=C(O)C1OC(Oc2cc3ccccc3cc2O)C(O)C(O)C1O` (as salt: salt) [Compound 2b, DHN-β-D-Glucuronide CHA Salt], for which the melting point lay in the range of 223 to 224 °C.

`O=C([O-])C1OC(Oc2cc3ccccc3cc2O)C(O)C(O)C1O.[Na+]` [Compound 2a, DHN-β-D-Glucuronide Sodium Salt] returned a melting point of 53 to 55 °C. Further, the colour entry in [1] was “−”. In data set [2], the colour result is given as “−”. Moreover, the colour result in data set [3] is listed as “−”. Also, the colour entry in [4] is recorded as “−”. In addition, the colour entry in [5] is “−”. In data set [6], the colour result is recorded as “−”. For the same compound, in data set [7], the colour entry was “−”. In data set [8], the colour entry is reported as “−”. In addition, in data set [9], the “intensity of the colour / performance compared with the other substrates” value is “performed the same as its CHA salt (2b)” and the colour result is “++”. Also, the colour result in data set [10] is on record as “−”. In addition, in data set [11], the colour entry was “−”. Also, the colour entry in data set [12] is listed as “−”. For the same compound, in data set [13], the colour entry is on record as “−”. The colour entry in [14] is recorded as “−”. The colour entry in data set [15] was “−”. Also, the colour entry in data set [16] is recorded as “−”. For the same compound, in data set [17], the colour result is on record as “−”. The colour entry in [18] was “−”. Moreover, in data set [19], the colour result is recorded as “−”. Besides, the colour entry in data set [20] is listed as “−”. In addition, in data set [21], the “result with the other 19 organisms” value was “uniformly negative”.

As for `COC(=O)C1OC(Oc2ccccc2O)C(OC(C)=O)C(OC(C)=O)C1OC(C)=O` [Compound 3, Catechol 2′,3′,4′,-tri-O-acetyl β-D-glucuronide-6′-methyl ester], the melting point lay in the range of 128 to 130 °C.

For `COC(=O)C1OC(Oc2ccccc2O)C(O)C(O)C1O` [Compound 4, Catechol β-D-Glucuronide-6′-Methyl Ester], the colour result in [1], in data set [2], in data set [3], in data set [4], in data set [5] and in [6] was “−” each time. Moreover, the colour entry in data set [7] is “−”; in data set [8], “−”; in data set [9], “+”; in data set [10] it was “−”; in [11], “−”; in data set [12], “−”. Also, the colour entry in [13], in [14], in [15], in data set [16], in [17] and in data set [18] was “−” throughout. Also, the colour entry in data set [19] and in data set [20] was “−” in each case. The “intensity of the colour / performance compared with the other substrates” value in data set [9] is listed as “noticeably inferior”. The “result with the other 19 organisms” value in [21] is on record as “uniformly negative”.

As for `COC(=O)C1OC(Oc2cc3ccccc3cc2O)C(OC(C)=O)C(OC(C)=O)C1OC(C)=O` [Compound 5, DHN-2′,3′,4′-tri-O-acetyl-β-D-glucuronide-6-methyl ester], the melting point was in the range of 191 to 192 °C.

On to `COC(=O)C1OC(Oc2cc3ccccc3cc2O)C(O)C(O)C1O` [Compound 6, DHN-β-D-Glucuronide-6′-Methyl Ester], for which the colour result in data set [1], in [2], in data set [3], in data set [4], in data set [5] and in data set [6] was “−” in each case. Also, the colour entry in [7] is listed as “−”; in [8], “−”; in [9], “+”; in data set [10] it was “−”; in data set [11], “−”; in data set [12], “−”. Besides, the colour result in data set [13], in data set [14], in data set [15], in data set [16], in [17] and in data set [18] was “−” each time. For the same compound, the colour entry in data set [19] and in data set [20] was “−” each time. Also, the “intensity of the colour / performance compared with the other substrates” value in [9] is “noticeably inferior”. Moreover, in data set [21], the “result with the other 19 organisms” value is recorded as “uniformly negative”.

The values are drawn from patent US9879303B2, “Chromogenic glucuronidase substrates and uses” (Glycosynth Limited, priority 2013, dated 2018).
